The record followed here is ChEMBL document CHEMBL4834492, “Targeting the KRAS G12D Mutant as Potential Therapy in Cancer” (ACS Med Chem Lett, 2021).

In the first assay the target is GTPase KRas (Homo sapiens, UniProt P01116, G12D). In words: Inhibition of recombinant his-tagged KRAS G12D mutant (unknown origin) expressed in Escherichia coli BL21(DE3) assessed as inhibition of GDP-GTP exchange rate in presence of recombinant SOS1/GMPPNP incubated for 1 hr by BODIPY fluorescence assay.
Chain of GTPase KRas (P01116 whole entry G12D): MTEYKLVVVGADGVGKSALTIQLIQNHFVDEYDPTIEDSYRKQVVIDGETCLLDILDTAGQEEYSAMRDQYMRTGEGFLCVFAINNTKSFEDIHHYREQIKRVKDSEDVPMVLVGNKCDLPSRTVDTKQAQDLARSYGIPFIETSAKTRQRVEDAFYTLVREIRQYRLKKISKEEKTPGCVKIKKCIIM
Conditions: not given
The IC50 is the concentration that gives 50% inhibition. In the case of `Oc1cc(N2CCc3c(nc(OCC4(CN5CCOCC5)CC4)nc3N3CC4CCC(C3)N4)C2)c2c(Br)cccc2c1`, the half-inhibitory concentration (IC50) is 1.2 nM.

The next assay deals with A-427. The assay can be described thus: Antiproliferative activity against human A427 cells expressing KRAS G12D mutant assessed as inhibition of cell growth measured after 3 days by CellTiter-Glo assay. The class given is functional, cell-based. The conditions noted are these: A-427, 72 h.
Consider `CN1C[C@H](F)C[C@H]1COc1nc2c(c(N3CC4CCC(C3)N4)n1)CCN(c1cc(O)cc3cccc(Br)c13)C2`, for which the IC50 was determined as 650 nM.

Take `CN(C)CC1(COc2nc3c(c(N4CC5CCC(C4)N5)n2)CCN(c2cc(O)cc4cccc(I)c24)C3)CC1`: the IC50 was determined as 580 nM.

Take `CN(C)CC1(COc2nc3c(c(N4CC5CCC(C4)N5)n2)CCN(c2cc(O)cc4cccc(Br)c24)C3)CC1(F)F` (centres undefined): the half-inhibitory concentration (IC50) is 540 nM.

For `Oc1cc(N2CCc3c(nc(OCC4(CN5CC[C@@H](F)C5)CC4)nc3N3CC4CCC(C3)N4)C2)c2c(Br)cccc2c1`, the half-inhibitory concentration (IC50) was determined as 540 nM.

Take `Cc1cccc2cc(O)cc(N3CCc4c(nc(OCC5(CN6CCOCC6)CC5)nc4N4CC5CCC(C4)N5)C3)c12`: the IC50 came to 550 nM.

As for `Oc1cc(N2CCc3c(nc(OCC4(CN5CC[C@@H](F)C5)CC4)nc3N3CC4CCC(C3)N4)C2)c2c(I)cccc2c1`, the concentration for half-maximal inhibition (IC50) amounted to 470 nM.

Take `Oc1cc(N2CCc3c(nc(OCC4(CN5CCOCC5)CC4)nc3N3CC4CCC(C3)N4)C2)c2c(I)cccc2c1`: the IC50 is 350 nM.

Turning to `Oc1cc(N2CCc3c(nc(OCC4(CN5CCOCC5)CC4)nc3N3CC4CCC(C3)N4)C2)c2c(Br)cccc2c1`, the IC50 stood at 590 nM.
